For data set [1], the system named is Methicillin-resistant Staphylococcus aureus (S. aureus F-3095). Description: Sensitivity Test 2: antibacterial activity (MIC) by micro-dilution method. The class given is cell-based. How it is done: (§1) Test compounds were initially dissolved in dimethylsulfoxide. Antibacterial activities (MICs) of the same compounds were determined by the micro-dilution method as recommended by the Japanese Society of Chemotherapy.
(§2) Staphylococcus aureus (S. aureus FDA209P) was used as the test organism. The bacterial cells were grown overnight at 35° C. on Mueller-Hinton agar (MHA) plates. The bacterial cells were then suspended in sterile saline and adjusted to the turbidity of a 0.5 McFarland standard. The inoculum was prepared by 10-fold dilution of this suspension. Approximately 0.005 mL aliquots of the inoculum prepared above were subsequently inoculated into Cation-adjusted Mueller-Hinton broth (CAMHB, 100 μL/well) including the test compounds for overnight incubation at 35° C.
Methicillin-resistant Staphylococcus aureus (S. aureus F-3095) was used as the test organism. Antibacterial activities (MICs) were determined in the same manner as in Test Example 1.
On the technique in general: Broth dilution looks for growth in wells or tubes with falling amounts of substance.

For data set [2], the system named is S. aureus Smith. Description: Infection Test: mice infected intraperitoneally with S. aureus Smith. To be noted: ICR mice, 5 per group; S. aureus Smith i.p.; 10 mg/kg subcutaneously once at 1 hour after infection; survivors recorded 3 days after infection. The class given is in vivo. The method, then:
S. aureus Smith which was grown overnight at 37° C. on Mueller-Hinton agar (MHA) plates were suspended to give a final concentration of 10^9 CFU/mL. The inoculum was prepared by diluting this suspension 10-fold in 1/15 mol/L phosphate buffer (pH 7) containing 5.6% mucin. ICR mice (4 to 4.5 weeks of age, male, 5 mice per group) were intraperitoneally administered with the inoculum (approximately 2×10^7 CFU per mice) to induce infection.
After dissolving the test compounds in 0.1 mol/L hydrochloric acid, 20% 2-hydroxypropyl-β-cyclodextrin (HP-β-CD) or a mixture of 20% HP-β-CD and 0.1 mol/L hydrochloric acid at a proportion of 1:1 was added to give a final concentration of 1 mg/mL. Each of the test compound solutions (10 mg/kg) was subcutaneously administered once to a group of mice at 1 hour after infection. The control group was administered with 10% HP-β-CD. The mice were observed daily and the number of surviving mice in each group was recorded 3 days after infection.

The test system of data set [3] is Vero cells. Description: Cytotoxicity Test (XTT) on Vero cells. The format is cell-based. The note with it: 51.2 μg/mL of test compound, 3 days at 37° C., XTT absorbance ratio of treated to untreated well. The method, then:
Test compounds were initially dissolved in dimethylsulfoxide. […]. After incubation, absorbance was read at 450 nm and 655 nm in a spectrophotometric microplate reader. The values were expressed as the ratio between the value for the well treated with 51.2 μg/mL of each test compound and the value for the well untreated with the test compound (T/C).
On the technique in general: Tetrazolium dyes change colour on reduction, which living cells bring about.

The test system of data set [4] is Staphylococcus aureus (S. aureus FDA209P). Description: Sensitivity Test 1: antibacterial activity (MIC) by micro-dilution method. The format is cell-based. How it is done:
as §1, §2

[5] abbreviates: S. aureus FDA209P, CAMHB, overnight incubation at 35° C., lowest concentration with virtually no growth, read-out: MIC.
Where [6] appears, read: Methicillin-resistant S. aureus F-3095, same manner as in Test Example 1, read-out: MIC.

In brackets after ≈: the same amount, converted by molar mass. Where a name gives a salt, the structure may show the parent alone. Read-outs that look alike come from different tables or passages of the source. Where only a bound is given, the exact number is not on record here.

Consider 24 compounds from US8524738B2, “Quinolinones and quinoxalinones as antibacterial composition” (Toyama Chemical Co., Ltd., priority 2005, dated 2013).

In general, MIC refers to the lowest concentration that inhibits growth of the organism. What is called T/C is the result in the treated group divided by that in the control group, in per cent.

As to `COc1ccc2ncc(=O)n(CCN3CCC(NCc4cc5c(cn4)OCCO5)CC3)c2c1` [Example 359, 1-(2-(4-((2,3-dihydro-1,4-dioxino[2,3-c]pyridin-7-yl)methylamino)piperidin-1-yl)ethyl)-7-methoxy-quinoxalin-2(1H)-one hydrochloride], the MIC in data set [1] and in data set [4] (FDA209P) was 0.0313 µg/mL in each case. Moreover, the “Number of surviving mice” value in data set [2] came to 5. In data set [3], the T/C was more than 50%. `COc1ccc2c(C)cc(=O)n(CCCC3(C(=O)O)CCN(CCSc4cccs4)CC3)c2c1` [Example 7, 4-(3-(7-methoxy-4-methyl-2-oxoquinolin-1(2H)-yl)propyl)-1-(2-(2-thienylthio)ethyl)piperidine-4-carboxylic acid]: the T/C in data set [3] was more than 50%. In data set [4] (setting [5]), the MIC amounted to 0.25 µg/mL (≈ 0.499 µM). In the case of `COc1ccc2ncc(=O)n(CCN3CCC(NCc4ccc5c(c4)NC(=O)CS5)CC3)c2c1` [Example 91, 6-(((1-(2-(7-methoxy-2-oxoquinoxaline-1-(2H)-yl)ethyl)piperidin-4-yl)amino)methyl)-2H-1,4-benzothiazine-3(4H)-one], the MIC in data set [1] (setting [6]) and in data set [4] (setting [5]) was 0.0313 µg/mL (≈ 0.0653 µM) each time. The “Number of surviving mice” value in data set [2] is 5. Consider `O=c1ccc2ccccc2n1CCN1CCC(NCc2ccc3c(c2)OCCO3)CC1` [Example 63, 1-(2-(4-(2,3-dihydro-1,4-benzodioxin-6-ylmethyl)amino)piperidin-1-yl)ethyl)-quinolin-2(1H)one hydrochloride], for which the T/C in data set [3] is on record as more than 50%. Further, in data set [4] (setting [5]), the MIC was found to be 0.0625 µg/mL.

On to `COc1ccc2ncc(=O)n(CCN3CCC(NCc4ccc5c(c4)OCCO5)CC3)c2c1` [Example 117, 1-(2-(4-((2,3-dihydro-1,4-benzodioxin-6-ylmethyl)amino)piperidin-1-yl)ethyl)-7-methoxyquinoxalin-2(1H)-one hydrochloride], for which the minimal inhibitory concentration (MIC) in data set [1] and in data set [4] (FDA209P) was 0.0313 µg/mL each time. Besides, the “Number of surviving mice” value in data set [2] turned out to be 5. As to `CCOc1ccc2c(C)cc(=O)n(CCN3CCC(NCc4ccc5c(c4)OCCO5)CC3)c2c1` [Example 104, 1-(2-(4-((2,3-dihydro-1,4-benzodioxin-6-ylmethyl)amino)piperidin-1-yl)ethyl)-7-ethoxy-4-methylquinolin-2(1H)-one hydrochloride], in data set [4] (FDA209P), the MIC was 0.0625 µg/mL.

As for `O=c1cnc2ccc(F)cc2n1CCN1CCC(NCc2cc3ccccc3s2)CC1` [Example 349, 1-(2-(4-((benzo[b]thiophen-2-yl)methylamino)piperidin-1-yl)ethyl)-7-fluoroquinoxalin-2(1H)-one hydrochloride], 0.0156 µg/mL was the least that counted as inhibitory in data set [4] (FDA209P) (MIC). For the compound `COc1ccc2ccc(=O)n(CCN3CCC(NCc4cc5c(cn4)OCCO5)CC3)c2c1` [Example 64, 1-(2-(4-((2,3-dihydro(1,4)dioxino(2,3-c)pyridin-7-ylmethyl)amino)piperidin-1-yl)ethyl)-7-methoxyquinolin-2(1H)-one], the MIC in data set [1] (setting [6]) and in data set [4] (setting [5]) was 0.0156 µg/mL (≈ 0.0346 µM) each time.

The compound `Cc1cc(=O)n(CCN2CCC(NCc3ccc4c(c3)OCCO4)CC2)c2cc(F)ccc12` [Example 109, 1-(2-(4-((2,3-dihydro-1,4-benzodioxin-6-ylmethyl)amino)piperidin-1-yl)ethyl)-7-fluoro-4-methylquinolin-2(1H)-one hydrochloride] had an MIC in data set [4] (FDA209P) of 0.125 µg/mL. Still for that read-out and setting: with `COc1ccc2ncc(=O)n(CCN3CCC(NCc4ccc(C)c(F)c4)CC3)c2c1` [Example 354, 1-(2-(4-(3-fluoro-4-methylbenzylamino)piperidin-1-yl)ethyl)-7-methoxyquinoxalin-2(1H)-one hydrochloride] the figure was 0.0078 µg/mL. `COc1ccc2c(C)cc(=O)n(CCN3CCC(NCC(=O)Nc4ccccn4)CC3)c2c1` [Example 18, N-(pyridin-2-yl)-N^2-(1-(2-(7-methoxy-4-methyl-2-oxoquinolin-1(2H)-yl)ethyl)piperidin-4-yl)glycinamide]: the MIC in data set [4] (setting [5]) amounted to 0.25 µg/mL (≈ 0.556 µM). In data set [4] (FDA209P), `COc1ccc2ncc(=O)n(CCN3CCC(NCc4ccc5ccccc5c4)CC3)c2c1` [Example 356, 7-methoxy-1-(2-(4-((naphthalen-2-yl)methylamino)piperidin-1-yl)ethyl)quinoxalin-2(1H)-one hydrochloride] displayed a minimum inhibitory concentration (MIC) of 0.0156 µg/mL.

As for `COc1ccc2ccc(=O)n(CCN3CCC(NC(=O)c4ccc5c(c4)OCCO5)CC3)c2c1` [Example 36, N-(1-(2-(7-methoxy-2-oxoquinolin-1(2H)-yl)ethyl)piperidin-4-yl)-2,3-dihydro-1,4-benzodioxin-6-carboxamide], in data set [4] (setting [5]), the MIC was found to be 0.125 µg/mL (≈ 0.27 µM). Regarding `Cc1cc(=O)n(CCN2CCC(NCc3ccc4c(c3)OCCO4)CC2)c2cc(Cl)ccc12` [Example 107, 7-chloro-1-(2-(4-((2,3-dihydro-1,4-benzodioxin-6-ylmethyl)amino)piperidin-1-yl)ethyl)-4-methylquinolin-2(1H)-one hydrochloride], in data set [4] (FDA209P), inhibition of growth (MIC) required 0.0313 µg/mL. Consider `CNC(=O)c1cc(=O)n(CCN2CCC(NCc3cc4c(cn3)OCCO4)CC2)c2cc(OC)ccc12` [Example 66, 1-(2-(4-((2,3-dihydro(1,4)dioxino(2,3-c)pyridin-7-ylmethyl)amino)piperidin-1-yl)ethyl)-7-methoxy-N-methyl-2-oxo-1,2-dihydroquinoline-4-carboxamide], for which the MIC in data set [4] (setting [5]) turned out to be 0.25 µg/mL (≈ 0.493 µM). On to `CCc1ccc(CNC2CCN(CCn3c(=O)cnc4ccc(OC)cc43)CC2)cc1` [Example 353, 1-(2-(4-(4-ethylbenzylamino)piperidin-1-yl)ethyl)-7-methoxyquinoxalin-2(1H)-one hydrochloride], for which the MIC in data set [4] (FDA209P) was found to be 0.0156 µg/mL. On the same count and under the same terms, as for `COc1ccc2ncc(=O)n(CCN3CCC(NCc4cc5c(cn4)OCCCO5)CC3)c2c1` [Example 375, hydrochloride], the figure is 0.0156 µg/mL. In the case of `COc1ccc2ncc(=O)n(CCN3CCC(NCc4ccc5c(n4)NC(=O)CS5)CC3)c2c1` [Example 179, 6-(((1-(2-(7-methoxy-2-oxoquinoxalin-1(2H)-yl)ethyl)piperidin-4-yl)amino)methyl)-2H-pyrido(3,2-b)(1,4)thiazin-3(4H)-one], the MIC in data set [1] (setting [6]) was 0.0313 µg/mL (≈ 0.0651 µM); in data set [4] (setting [5]) it was 0.0156 µg/mL (≈ 0.0325 µM). Further, in data set [2], the “Number of surviving mice” value worked out at 5. Compound `COc1ccc2ncc(=O)n(CCN3CCC(NCc4ccc5c(c4)SCCS5)CC3)c2c1` [Example 370, 1-(2-(4-((2,3-dihydro-1,4-benzodithiin-6-ylmethyl)amino)piperidin-1-yl)ethyl)-7-methoxyquinoxalin-2(1H)-one hydrochloride] displayed an MIC in data set [4] (FDA209P) of 0.0039 µg/mL. On to `COc1ccc2c(C)cc(=O)n(CCC3(C(N)=O)CCC(NCc4ccc5c(c4)OCCO5)CC3)c2c1` (stereo not shown) [Example 155, 4-((2,3-dihydro-1,4-benzodioxin-6-ylmethyl)amino)-1-(2-(7-methoxy-4-methyl-2-oxoquinolin-1(2H)-yl)ethyl)cyclohexanecarboxamide], for which, in data set [4] (setting [5]), the MIC turned out to be 0.125 µg/mL (≈ 0.247 µM). On to `COc1ccc2ncc(=O)n(CCC3(O)CCC(NCc4cc5c(cn4)OCCO5)CC3)c2c1` (single isomer, unassigned) [389(B), 1-(2-(4-((2,3-dihydro(1,4)dioxino(2,3-c)pyridin-7-ylmethyl)amino)-1-hydroxycyclohexyl)ethyl)-7-methoxyquinoxalin-2(1H)-one], for which the MIC in data set [1] (setting [6]) was found to be 0.0625 µg/mL (≈ 0.134 µM); in data set [4] (setting [5]) it was 0.0156 µg/mL (≈ 0.0334 µM). In addition, the T/C in data set [3] is listed as more than 50%. `COc1ccc2c(C)cc(=O)n(CCN3CCC(NCc4ccc5c(c4)OCCO5)CC3)c2c1` [Example 2, 1-(2-(4-((2,3-dihydro-1,4-benzodioxin-6-ylmethyl)amino)piperidin-1-yl)ethyl)-7-methoxy-4-methylquinolin-2(1H)-one]: the MIC in data set [1] and in data set [4] (setting [5]) was 0.0313 µg/mL (≈ 0.0675 µM) each time. The “Number of surviving mice” value in data set [2] turned out to be 4. As to `CNC(=O)C1CN(CCn2c(=O)ccc3ccc(OC)cc32)CCC1NCc1ccc2c(c1)OCCO2` (single isomer, unassigned) [Example 176, 4-((2,3-dihydro-1,4-benzodioxin-6-ylmethyl)amino)-1-(2-(7-methoxy-2-oxoquinolin-1(2H)-yl)ethyl)-N-methylpiperidine-3-carboxamide], in data set [4] (setting [5]), the MIC amounted to 0.0625 µg/mL (≈ 0.123 µM). In data set [4] (FDA209P), `COc1ccc2ncc(=O)n(CCN3CCC(NCc4ccc5c(n4)NC(=O)CO5)CC3)c2c1` [Example 400, 7-methoxy-1-(2-(4-((3-oxo-3,4-dihydro-2H-pyrido[3,2-b][1,4]oxazin-6-yl)methylamino)piperidin-1-yl)ethyl)quinoxalin-2(1H)-one hydrochloride] yielded an MIC of 0.0156 µg/mL.
